Legend:
[1] = system: influenza A virus A/342/2009 (H1N1; oseltamivir-resistant); format: cell-based
[2] = molecular target: neuraminidase of influenza A virus A/342/2009 (H1N1, oseltamivir resistant) (UniProt P03468); format: biochemical

| Structure (SMILES) | 90% inhibitory concentration, A/342/2009 [1] | 95% inhibitory concentration (values in parentheses), A/342/2009 [1] | 50% inhibitory concentration higher compared to zanamivir [2] |
| --- | --- | --- | --- |
| CCC(CC)O[C@@H]1C=C(C(=O)O)C[C@H](NC(=N)N)[C@H]1NC(C)=O [Compound 9, (3R,4R,5S)-4-acetamido-5-(N-guanidino)-3-(1-ethylpropoxy)cyclohex-1-en-1-carboxylic acid] | 3.0 (14.2) μM | 3.0 (14.2) μM |  |
| CCOC(=O)C1=C[C@@H](OC(CC)CC)[C@H](NC(C)=O)[C@@H](N)C1 [Oseltamivir, (3R,4R,5S)-4-acetamido-5-amino-3-(1-ethylpropoxy)cyclohex-1-en-1-carboxylic acid ethyl ester, reference compound] | resistant |  |  |
| CCC(CC)O[C@@H]1C=C(C(=O)O)C[C@H](NC(C)=N)[C@H]1NC(C)=O [Compound 3] | 16.0 (22.3) μM | 16.0 (22.3) μM | 50 fold |
